The source made the active and inactive calls. No cut-off for these calls is given here.

Results on nine compounds are retold here after ChEMBL document CHEMBL3272086, “Antimalarials. 9. Methylthio- and methylsulfonyl-substituted 9-phenanthrenemethanols” (1976).

Assay [1] relates to Plasmodium berghei. Nature of the assay: Antimalarial activity against Plasmodium berghei infected in mouse assessed as change in mean survival time at 20 mg/kg, sc administered 72 hrs post infection as single dose (reference value: 6.2 days). The assay is classed as functional. Conditions: route subcutaneous.
The test system of assay [2] is Plasmodium berghei. Description: Antimalarial activity against Plasmodium berghei infected in mouse assessed as cure from disease at 160 mg/kg, sc administered 72 hrs post infection as single dose measured post 60 days. The assay is classed as functional, organism-based. More on the design: dose 160 mg/kg.
For assay [3], the system named is Plasmodium berghei. Description: Antimalarial activity against Plasmodium berghei infected in mouse assessed as change in mean survival time at 40 mg/kg, sc administered 72 hrs post infection as single dose (reference value: 6.2 days). The assay is classed as functional. Particulars: route subcutaneous.
Assay [4] concerns Plasmodium berghei. Nature of the assay: Antimalarial activity against Plasmodium berghei infected in mouse assessed as change in mean survival time at 80 mg/kg, sc administered 72 hrs post infection as single dose (reference value: 6.2 days). The assay is classed as functional. Particulars: route subcutaneous.
In assay [5] the test system is Plasmodium berghei. Nature of the assay: Antimalarial activity against Plasmodium berghei infected in mouse assessed as cure from disease at 320 mg/kg, sc administered 72 hrs post infection as single dose measured post 60 days. The assay is classed as functional, organism-based. More on the design: dose 320 mg/kg.
In assay [6] the test system is Plasmodium berghei. Description: Antimalarial activity against Plasmodium berghei infected in mouse assessed as change in mean survival time at 160 mg/kg, sc administered 72 hrs post infection as single dose (reference value: 6.2 days). The assay is classed as functional. Particulars: route subcutaneous.
Assay [7] relates to Plasmodium berghei. Nature of the assay: Antimalarial activity against Plasmodium berghei infected in mouse assessed as change in mean survival time at 320 mg/kg, sc administered 72 hrs post infection as single dose (reference value: 6.2 days). Conditions: route subcutaneous. The assay is classed as functional.

In the case of `CCCCN(CCCC)CC(O)c1cc2cc(SC)ccc2c2cc(Cl)c(Cl)cc12.Cl` (stereo not given), the figures for the MST in assay [1] and in assay [3] were 9.1 days and 10.3 days, respectively. For the same compound, the outcome in assay [2] was Active.
As for `CCCCN(CCCC)CC(O)c1cc2cc(Br)ccc2c2cc(SC)ccc12.Cl` (stereo not given), the figures for the MST in assay [1], in assay [4] and in assay [3] were 2.8 days, 9.5 days and 8.6 days, respectively.
On to `CCCCN(CCCC)CC(O)c1cc2cc(SC)ccc2c2c(Cl)c(Cl)ccc12.Cl` (stereo not given), for which the values for the MST in assay [1] and in assay [3] were 9.3 days and 10.7 days, respectively.
With `CCCCN(CCCC)CC(O)c1cc2cc(S(C)(=O)=O)ccc2c2c(Cl)c(Cl)ccc12.Cl` (stereo not given), the MST in assay [1] came to 4.7 days; in assay [4], 14.9 days; in assay [3], 7.7 days. Besides, in assay [5], the result was Active.
For `CCCCN(CCCC)CC(O)c1cc2cc(S(C)(=O)=O)ccc2c2cc(Cl)c(Cl)cc12.Cl` (stereo not given), the MST in assay [1] came to 4.9 days; in assay [3], 8.5 days. Also, the outcome in assay [5] was Active.
Take `CCCCN(CCCC)CC(O)c1cc2cc(S(C)(=O)=O)ccc2c2cc(S(C)(=O)=O)ccc12.Cl` (stereo not given): the MST in assay [4] was found to be 0.3 days; in assay [3], 0.1 days; in assay [6] it was 0.3 days; in assay [7], 0.3 days.
In the case of `CCCCN(CCCC)CC(O)c1cc2cc(SC)ccc2c2cc(SC)ccc12.Cl` (stereo not given), the MST was determined as 0.7 days in assay [1], 11.5 days in assay [4], 5.9 days in assay [3] and 16.1 days in assay [6]. For the same compound, the outcome in assay [5] was Active.
`CCCCN(CCCC)CC(O)c1cc2cc(Br)ccc2c2cc(S(C)(=O)=O)ccc12.Cl` (stereo not given): the MST in assay [1] was 0.6 days; in assay [4], 10.8 days; in assay [3] it was 1.2 days.
As for `CCCCN(CCCC)CC(O)c1cc2cc(Cl)cc(Cl)c2c2cc(SC)ccc12.Cl` (stereo not given), the MST in assay [1] stood at 10.5 days. For the same compound, the outcome in assay [5] and in assay [2] was Active.
